Test results: patent EP1268431B1 (Wyeth, priority 2000, dated 2001)
Several values for one entry are separate records, joined by “and”; a condition that tells them apart may be missing. Identical values can stand only once. Like-named read-outs stand apart in the source and are kept apart here.

Key:
[1] = biological target: T1, c-Src (Homo sapiens, UniProt P12931); assay: c-Src Kinase Assay (ELISA format); type: biochemical
T1 construct: purchased Upstate Biotechnologies
In short: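 Partially purified Src preincubated with compound and biotinylated peptide 10 min at 30 °C in Tris-HCl pH 7.5 with MgCl2, EGTA, vanadate; ATP-started reaction ran 1 h at 30 °C, EDTA-stopped. Phosphopeptide captured on streptavidin, detected by HRP anti-phosphotyrosine; % inhibition = (1 − Abs/Abs(max)) × 100.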

[2] = tested on: Rat2 fibroblasts stably transformed with a plasmid containing a CMV promotor controlled v-Src/Hu c-Src fusion gene; assay: Anchorage Independent Src-transformed Fibroblast Proliferation Assay
[3] = Rattus norvegicus, Rat2, 120 h, read-out: anch-indep src-tx fib IC50, suspension growth, MTS on Day 5

T1 sequence (P12931 whole entry, species assumed): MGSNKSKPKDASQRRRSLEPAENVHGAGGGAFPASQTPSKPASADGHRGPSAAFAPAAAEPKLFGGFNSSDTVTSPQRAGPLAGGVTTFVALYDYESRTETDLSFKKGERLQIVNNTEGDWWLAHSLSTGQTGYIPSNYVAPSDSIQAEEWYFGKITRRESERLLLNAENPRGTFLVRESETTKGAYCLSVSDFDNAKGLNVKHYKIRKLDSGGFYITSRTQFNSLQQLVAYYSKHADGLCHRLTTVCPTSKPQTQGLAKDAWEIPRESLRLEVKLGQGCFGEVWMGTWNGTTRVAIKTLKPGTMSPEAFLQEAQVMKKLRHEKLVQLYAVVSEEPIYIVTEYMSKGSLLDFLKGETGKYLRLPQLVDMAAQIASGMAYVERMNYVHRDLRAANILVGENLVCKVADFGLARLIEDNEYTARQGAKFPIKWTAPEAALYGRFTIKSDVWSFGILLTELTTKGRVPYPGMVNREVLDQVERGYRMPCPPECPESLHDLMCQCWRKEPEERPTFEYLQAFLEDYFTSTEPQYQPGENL

Compound | IC50 [1] | IC50 [2, 3] [nM] | IC50 ([2]; read-out: anch-indep src-tx fib IC50, suspension growth, MTS on Day 5) [nM]
COc1cc(Nc2c(C#N)cnc3cc(C#CCN4CCOCC4)c(OC)cc23)c(Cl)cc1Cl [Example 166, 4-(2,4-dichloro-5-methoxyanilino)-6-methoxy-7-[3-(4-morpholinyl)-1-propynyl]-3-quinoline-carbonitrile] | 5.5 nM | 720 | –
CCOC(=O)CC1CCN(Cc2ccc(-c3ccc4c(Nc5cc(OC)c(Cl)cc5Cl)c(C#N)cnc4c3)cc2)CC1 [Example 144, ethyl (1-{4-[3-cyano-4-(2,4-dichloro-5-methoxyanilino)-7-quinolinyl]benzyl}-4-piperidinyl)acetate] | 4 nM | 92 | –
COc1cc(Nc2c(C#N)cnc3cc(-c4ncccc4CN4CCOCC4)ccc23)c(Cl)cc1Cl [Example 111, 4-(2,4-Dichloro-5-methoxyanilino)-7-[3-(morpholin-4-ylmethyl)-pyridin-2-yl]-3-quinolinecarbonitrile] | 410 nM | > 10000 | –
COc1cc(Nc2c(C#N)cnc3cc(-c4cnc(C=O)n4C)c(OC)cc23)c(Cl)cc1Cl [Example 228, 4-(2,4-dichloro-5-methoxyanilino)-7-(2-formyl-1-methyl-1H-imidazol-5-yl)-6-methoxy-3-quinolinecarbonitrile] | 46 nM | > 10000 | –
N#Cc1cnc2cc(C#CCCCN3CCOCC3)ccc2c1Nc1ccc(Cl)cc1Cl [Example 11, 4-(2,4-Dichloroanilino)-7-[5-(4-morpholinyl)-1-pentynyl]-3-quinolinecarbonitrile] | 43 nM | > 10000 | –
COc1cc(Nc2c(C#N)cnc3cc(-c4cnc(N5CCOCC5)nc4)ccc23)c(Cl)cc1Cl [Example 186, 4-(2,4-dichloro-5-methoxyanilino)-7-[2-(4-morpholinyl)-5-pyrimidinyl]-3-quinolinecarbonitrile] | 30 nM | > 10000 | –
N#Cc1cnc2cc(-c3ccc(CCN4CCOCC4)s3)ccc2c1Nc1ccc(Cl)cc1Cl [Example 9, 4-(2,4-Dichloroanilino)-7-{5-[2-(4-morpholinyl)ethyl]-2-thienyl}-3-quinolinecarbonitrile] | 6 nM | 2700 | –
N#Cc1cnc2cc(C=CCCCN3CCOCC3)ccc2c1Nc1ccc(Cl)cc1Cl (mixture of isomers) [Example 12, 4-(2,4-Dichloroanilino)-7-[(E/Z)-5-(4-morpholin)-1-pentenyl]-3-quinolinecarbonitrile] | 77 nM | > 10000 | –
COc1cc(Nc2c(C#N)cnc3cc(-c4cscc4CN4CCOCC4)ccc23)c(Cl)cc1Cl [Example 65, 4-(2,4-Dichloro-5-methoxyanilino)-7-[4-(4-morpholinylmethyl)-3-thienyl]-3-quinolinecarbonitrile] | 200 nM | > 10000 | –
COc1cc(Nc2c(C#N)cnc3cc(/C=C/c4ccccc4)ccc23)c(Cl)cc1Cl [Example 139, 4-(2,4-dichloro-5-methoxyanilino)-7-[(E)-2-phenylethenyl]-3-quinolinecarbonitrile] | 300 nM and 340 nM | > 10000 | –
COc1cc(Nc2c(C#N)cnc3cc(-c4ccccc4C=O)ccc23)c(Cl)cc1Cl [Example 114, 4-(2,4-Dichloro-5-methoxyanilino)-7-(2-formylphenyl)-3-quinolinecarbonitrile] | 2200 nM | > 10000 | –
COc1cc(Nc2c(C#N)cnc3cc(/C=C/C(=O)O)ccc23)c(Cl)cc1Cl [Example 99, (E)-3-[3-Cyano-4-(2,4-dichloro-5-methoxyanilino)-7-quinolinyl]-2-propenoic acid] | 44 nM | > 10000 | –
COc1cc(Nc2c(C#N)cnc3cc(-c4ccc(CO)cc4)ccc23)c(Cl)cc1Cl [Example 101, 4-(2,4-Dichloro-5-methoxyanilino)-7-[4-(hydroxymethyl)phenyl]-3-quinolinecarbonitrile] | 15 nM | > 10000 | –
COc1cc(Nc2c(C#N)cnc3cc(C#Cc4ccc(C)cc4)ccc23)c(Cl)cc1Cl [Example 141, 4-(2,4-dichloro-5-methoxyanilino)-7-[2-(4-methylphenyl)ethynyl]-3-quinolinecarbonitrile] | 750 nM | > 10000 | –
COc1cc(Nc2c(C#N)cnc3cc(-c4ccc(CNCCS(=O)(=O)c5ccccc5)o4)ccc23)c(Cl)cc1Cl [Example 58, 4-(2,4-Dichloro-5-methoxyanilino)-7-[5-({[2-(phenylsulfonyl)ethyl]amino}methyl)-2-furyl]-3-quinolinecarbonitrile] | 11 nM | 5100 | –
COc1cc(Nc2c(C#N)cnc3cc(-c4cnc(CN5CCOCC5)n4C)c(OC)cc23)c(Cl)cc1Cl [Example 232, 4-(2,4-dichloro-5-methoxyanilino)-6-methoxy-7-[1-methyl-2-(4-morpholinylmethyl)-1H-imidazol-5-yl]-3-quinolinecarbonitrile] | 78 nM | 3500 | –
COc1cc(Nc2c(C#N)cnc3cc(-c4ccc(C=O)n4C)ccc23)c(Cl)cc1Cl [Example 69, 4-(2,4-Dichloro-5-methoxyanilino)-7-(5-formyl-1-methyl-1H-pyrrol-2-yl)-3-quinolinecarbonitrile] | 110 nM | > 10000 | –
COc1cc(Nc2c(C#N)cnc3cc(-c4ccc(CN5CCN(C)CC5)n4C)ccc23)c(Cl)cc1Cl [Example 71, 4-(2,4-Dichloro-5-methoxyanilino)-7-{1-methyl-5-[(4-methyl-1-piperazinyl)methyl]-1H-pyrrol-2-yl}-3-quinolinecarbonitrile] | 26 nM and 24 nM | 6800 | –
COc1cc(Nc2c(C#N)cnc3cc(-c4ccc(CN5CCCCC5C(=O)O)cc4)ccc23)c(Cl)cc1Cl (stereo not shown) [Example 147, 1-{4-[3-cyano-4-(2,4-dichloro-5-methoxyanilino)-7-quinolinyl]benzyl}-2-piperidinecarboxylic acid] | 0.47 nM | 4600 | –
COc1cc(Nc2c(C#N)cnc3cc(-c4cccn4C(=O)OC(C)(C)C)ccc23)c(Cl)cc1Cl [Example 164, tert-butyl 2-[3-cyano-4-(2,4-dichloro-5-methoxyanilino)-7-quinolinyl]-1H-pyrrole-1-carboxylate] | > 1000 nM | > 10000 | –
COc1cc(Nc2c(C#N)cnc3cc(-c4cccc(CCN5CCOCC5)c4)c(OC)cc23)c(Cl)cc1Cl [Example 38, 4-(2,4-Dichloro-5-methoxyanilino)-6-methoxy-7-{3-[2-(4-morpholinyl)ethyl]phenyl}-3-quinolinecarbonitrile] | 81 nM | 12700 | 10600
